The values that follow are results of earlier work, collected in patent publication US8188084B2, “Pyridinone and pyridazinone derivatives as inhibitors of poly (ADP-ribose) polymerase (PARP)” (Istituto di Ricerche di Biologia Molecolare P. Angeletti …, priority 2006, dated 2012).

This data set concerns ischemia and reperfusion of the heart or skeletal muscle. The note with it: rabbits.

Regarding `Oc1cccc2c(O)nccc12` [1,5-dihydroxyisoquinoline], the reduced infarct size (single injection 1 mg/kg) is listed as 38-48%.
Consider `NC(=O)c1cccc(N)c1` [3-amino-benzamide], for which, under “single injection 10 mg/kg, one minute before occlusion or one minute before reperfusion”, the “reductions in infarct size in the heart” value was 32-42%.
